Values after ≈ are worked out from the molar mass of the structure shown. “Also recorded” adds a separate entry of the source. Read-outs that look alike come from different tables or passages of the source.
Assays:
[1] = system: target DNA sequence MH22; assay: PCR mutagenesis of target DNA, cloning and sequencing; assay type: biochemical; settings: for Number of point mutations, coding / Number of point mutations, silent / Number of point mutations, total: bases sequenced: dPTP 4093, 8-oxodGTP 5463, dPTP & 8-oxodGTP 3751; for additional (unexpected) mutations found: dPTP: out of 4093 bp, 8-oxodGTP: out of 5463 bp; for linear relation of mutation frequency with number of PCR cycles, up to: equimolar
Description: The four normal dNTPs and the analogues were used in equimolar amounts (500 μM);
Data obtained after different number of PCR cycles have been pooled and figures express percentage of total number of mutations;
Numbers at the top of the Table indicate how many times a particular codon is present in the target sequence. Open squares indicate single point mutations within a particular codon. Filled circles indicate two point mutations within a particular codon. […] Squares in shaded areas indicate silent mutations;
Filled in symbols indicate a single nucleotide change within a codon, open symbols denote two nucleotide changes within the same codon. […] Amino acids are grouped in five classes according to their physico-chemical characteristics: glycine, non-polar, polar, positively charged, and negatively charged.
The first number at the 5'-end of each sequence indicates how many PCR cycles were allowed in the presence of the analogue(s). The second number identifies different clones.
In order to investigate the mutations resulting when dPTP or 8oxodGTP was used in DNA synthesis reactions, PCR reactions were set up in which dPTP was added in equimolar concentrations to the four normal dNTPs. The DNA was amplified for a variable number of cycles and, in order to eliminate the incorporated base analogues, an aliquot of the amplified DNA was used as template in a second PCR amplification in which only the four normal dNTPs were used. The PCR product was subsequently cloned, and some of the clones sequenced (in this way, the pattern of mutation was not influenced by the DNA repair mechanisms of the E. coli host).
DNA amplification reactions were carried out for variable number of cycles, as indicated in FIGS. 11A-11C by the number preceding the point in the clone designation.
For mutagenesis experiments, 10 fmoles of template DNA were amplified using 0.5 μl of AmpliTaq polymerase (5 U/μl, Applied Biosystems) in a 20 μl reaction containing the appropriate sense and antisense […] at 0.5 μM, 2 mM MgCl2, 10 mM Tris-HCl pH8.3, 50 mM KCl, 1 g/l gelatine and dATP, dCTP, dGTP, TTP, dPTP and/or 8-oxodGTP, each at 500 μM. After various cycles (92° C. for 1 min, 55° C. for 1.5 min, 75° C. for 5 min), 1 μl of the amplified material was used in a second PCR in which the same conditions as above were used except that no dPTP or 8-oxodGTP were added to the reaction mixture. The product of the second PCR was digested with BstEII and PstI and cloned into M13VHPCRl vector (Jones et al., 1986 Nature 321, 522-525).

[2] = system: E.coli DNA polymerase I Klenow fragment; settings: 37° C., Purmal et al., 1994, cited from earlier work
[3] = target: T1, Taq Polymerase (Thermus aquaticus, UniProt P19821); assay: Substrate for Taq polymerase in PCR, replacing normal dNTPs; assay type: biochemical
Description: All dNTPs were at 500 μM, except in sample 4 and 7 where dPTP was at 1 mM.
B) The PCR reaction mix included: dATP, dCTP and TTP at 500 μm. Samples 1 to 4 contained dGTP at 50 μM, 25 μM, […] and 6.25 μM respectively, and 8-oxodGTP at 500 μM. Samples 5 to 8 contained the same decreasing amounts of dGTP but no 8-oxodGTP;
Lanes 5 to 8 show the PCR products obtained using the same conditions but in the absence of 8-oxodGTP.

[4] = system: thermostable Tth DNA polymerase; settings: Pavlov et al., 1994; cited from earlier work
[5] = target: T1, Taq Polymerase; settings: cited from earlier work
[6] = Singer et al. 1989; cited from earlier work
[7] = target: T1, Taq Polymerase; assay: Steady state kinetics of insertion opposite template A or G, primed synthetic oligonucleotide templates; assay type: biochemical; settings: for Relative Efficiency / Vmax /Km / Vmax^(rel): 55° C.
Description: FIGS. 5A-D show (Top): Plots of initial velocities against [dNTP] for the incorporation by Taq polymerase of dPTP opposite A (A), TTP opposite A (B), dPTP opposite G (C), and dCTP opposite G (D).
In order to compare the relative efficiencies of insertion of dPTP opposite template adenine and guanine residues respectively, we adopted the procedure of Boosalis et al. (Boosalis et al., 1987 J. Biol. Chem. 262, 14689-14696) for the determination of steady state kinetics using one of two primed synthetic oligonucleotide templates (FIG. 5). The ^32 P-labelled primer in each case was extended by the incorporation of dGTP at two positions, followed by dPTP (template 1 and 2), TTP (template 1) or dCTP (template 2). Separation of the products by PAGE followed by quantitation of the radioactivity using a PhosphorImager allowed the determination of the initial velocities (Boosalis et al., 1987). Due to the very high extension rate of Taq polymerase, the kinetic parameters were determined at 55° C. The velocities for the insertion of the particular triphosphate opposite template (Vmax) and Km values (μM) for particular insertions were determined from non-linear regression fitting to the Michaelis-Menten equation.

[8] = target: T2, TEM-1 β-lactamase (Escherichia coli, UniProt P62593); assay: Cefotaxime resistance / hydrolytic activity of TEM-1 β-lactamase and mutants in E. coli; assay type: cell-based; settings: wild type TEM-1
T2 construct: mutants cloned in pBC KS+
Description: In this experiment we set to improve the hydrolytic activity of the enzyme TEM-1 β-lactamase on the poorly hydrolysed substrate cefotaxime [minimum inhibitory concentration (MIC)=0.02 μg/ml] by repeated rounds of random mutagenesis and selection on increasing concentrations of the antibiotic. The best mutants selected in the first round are subjected to a second round of mutagenesis and selection in the presence of higher concentration of antibiotic. A stepwise improvement of the efficiency of TEM-1 hydrolytic activity is attained by progressively increasing the selective pressure.
The wild type TEM-1 gene from the plasmid pBR322 was used as a template for PCT amplification in the presence of dPTP and 8-oxodGTP in addition to the four normal dNTPs. The pool of mutants generated was cloned in the vector pBC KS^+ and the library of mutants transformed in E. coli by electroporation. […] Selected mutant were analysed by sequencing and the results of the first round of mutagenesis and selection are shown in Table 3A. A different number of cycles of the mutagenic PCT was used to generate four independent libraries of mutants (libA, libB, libC and libD) each characterised by a different frequency of mutation (0.3% for libA, 0.3% for libB, 1.8% for libC and 6.3% for libD), as determined by sequence analysis of unselected clones. […]

T1 sequence (P19821 whole entry): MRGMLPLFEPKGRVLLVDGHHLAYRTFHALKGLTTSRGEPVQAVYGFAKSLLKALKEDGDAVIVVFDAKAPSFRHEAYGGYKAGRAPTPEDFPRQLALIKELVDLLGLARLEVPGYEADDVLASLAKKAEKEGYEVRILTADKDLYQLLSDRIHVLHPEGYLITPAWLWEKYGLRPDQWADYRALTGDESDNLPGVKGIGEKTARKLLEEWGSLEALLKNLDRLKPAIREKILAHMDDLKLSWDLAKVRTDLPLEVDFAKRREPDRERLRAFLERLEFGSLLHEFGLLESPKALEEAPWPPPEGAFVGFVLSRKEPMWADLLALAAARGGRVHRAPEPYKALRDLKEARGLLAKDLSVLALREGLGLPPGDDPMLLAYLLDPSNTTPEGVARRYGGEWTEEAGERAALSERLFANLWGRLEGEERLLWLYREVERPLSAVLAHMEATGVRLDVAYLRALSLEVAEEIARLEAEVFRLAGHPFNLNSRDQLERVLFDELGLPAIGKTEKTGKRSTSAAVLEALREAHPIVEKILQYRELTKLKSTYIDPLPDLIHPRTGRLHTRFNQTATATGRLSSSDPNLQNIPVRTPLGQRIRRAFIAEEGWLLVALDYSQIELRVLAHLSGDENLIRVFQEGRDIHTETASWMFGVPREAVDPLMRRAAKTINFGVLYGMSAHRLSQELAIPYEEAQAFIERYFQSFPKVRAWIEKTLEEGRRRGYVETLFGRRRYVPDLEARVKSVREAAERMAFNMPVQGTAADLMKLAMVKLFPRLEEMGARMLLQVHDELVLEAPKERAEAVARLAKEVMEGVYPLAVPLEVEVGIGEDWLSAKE
T2 sequence (P62593 24-286 limits assumed): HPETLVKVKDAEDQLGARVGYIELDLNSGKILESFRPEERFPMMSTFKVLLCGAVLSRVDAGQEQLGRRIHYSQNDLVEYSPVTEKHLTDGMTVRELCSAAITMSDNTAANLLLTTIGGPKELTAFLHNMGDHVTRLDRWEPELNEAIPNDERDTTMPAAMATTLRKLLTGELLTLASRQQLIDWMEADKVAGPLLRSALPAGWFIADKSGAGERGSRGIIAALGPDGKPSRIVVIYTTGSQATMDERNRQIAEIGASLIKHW

Nc1nc2c(nc(O)n2[C@H]2C[C@H](O)[C@@H](COP(=O)(O)OP(=O)(O)OP(=O)(O)O)O2)c(=O)[nH]1 [8-oxodGTP, 2'-Deoxy-8-hydroxyguanosine 5'-triphosphate]
types of mutation produced [1]: two transversions (A→C and T→G)
A→C transversions of total mutations ([1]; 500 μM, pooled cycles): 38.8%
T→G transversions of total mutations ([1]; 500 μM, pooled cycles): 59%
codons replaced ([1]; 8 mutant clones, equimolar with dNTPs): 18 codons
Number of point mutations, coding [1]: 65
Number of point mutations, silent [1]: 16
Number of point mutations, total [1]: 91
additional (unexpected) mutations found [1]: One C→A transversion; also recorded: two A→G transitions and one G→A transition
linear relation of mutation frequency with number of PCR cycles, up to ([1]; 500 μM): ≥ 30 cycles
Km ([2]; read-out: Km for insertion opposite A): 58 µM
Km ([2]; read-out: Km for insertion opposite C): 63 µM
incorporation into DNA and its extension ([3]; normal or limiting dGTP, higher 8-oxodGTP): some incorporation into DNA and its extension could be demonstrated
A→C transversions rate [4]: approximately 1%

CON=c1[nH]c(N)nc2c1ncn2[C@H]1C[C@H](O)[C@@H](CO)O1 [K]
recognition of template DNA containing the analogue by polymerases [5]: recognised by polymerases such as Taq polymerase in PCR and Sequenase™ in DNA sequencing

CCOc1nc(=O)c(C)cn1[C@H]1C[C@H](O)[C@@H](COP(=O)(O)OP(=O)(O)OP(=O)(O)O)O1 [O^2 -ethylthymidine triphosphate]
A→T transversions induced [6]: induces A→T transversions, albeit at a low frequency

O=C1NC2=NOCCC2=CN1[C@H]1C[C@H](O)[C@@H](CO)O1 [P]
recognition of template DNA containing the analogue by polymerases [5]: recognised by polymerases such as Taq polymerase in PCR and Sequenase™ in DNA sequencing

Cc1cn([C@H]2C[C@H](O)[C@@H](COP(=O)(O)OP(=O)(O)OP(=O)(O)O)O2)c(=O)[nH]c1=O [TTP]
Relative Efficiency ([7]; template A): 1.00
Vmax /Km ([7]; template A): 167000 M⁻¹
Vmax^(rel) ([7]; template A): 1.02 ± 0.11

CO/N=C(\C(=O)N[C@@H]1C(=O)N2C(C(=O)O)=C(COC(C)=O)CS[C@H]12)c1csc(N)n1 [cefotaxime]
minimum inhibitory concentration (MIC) [8]: 0.02 µg/mL (≈ 0.0439 µM)

Nc1ccn([C@H]2C[C@H](O)[C@@H](COP(=O)(O)OP(=O)(O)OP(=O)(O)O)O2)c(=O)n1 [dCTP]
Relative Efficiency ([7]; template G): 1.00
Vmax^(rel) ([7]; template G): 1.01 ± 0.09

O=P(O)(O)OP(=O)(O)OP(=O)(O)OC[C@H]1O[C@@H](n2cnc3c(O)ncnc32)C[C@@H]1O [dITP, deoxyinosine triphosphate]
substrate quality for Taq polymerase ([5]; prior art): poor substrate for Taq Polymerase and cannot support DNA synthesis when replacing any of the four normal dNTPs

CON=c1[nH]c(N)nc2c1ncn2[C@H]1C[C@H](O)[C@@H](COP(=O)(O)OP(=O)(O)OP(=O)(O)O)O1 [dKTP, 2-Amino-9-(2-deoxy-β-D-erythropentofuranosyl)-6-methoxyaminopurine 5'-triphosphate]
replacement of dATP and dGTP in PCR ([3]; 350 base pair DNA, 30 cycles): could replace dATP and dGTP, but only to a limited extent

O=C1NC2=NOCCC2=CN1[C@H]1C[C@H](O)[C@@H](COP(=O)(O)OP(=O)(O)OP(=O)(O)O)O1 [dPTP, 6-(2-deoxy-β-D-erythropentofuranosyl)-3,4-dihydro-8H-pyrimido-[4,5-c][1,2]oxazine-7-one 5'-triphosphate]
mutagenic efficiency compared [1]: much more efficient mutagen than 8-oxodGTP
types of mutation produced [1]: four transitions (A→G, T→C, G→A and C→T)
A→G mutations of total mutations ([1]; 500 μM, pooled cycles): 46.6%
C→T mutations of total mutations ([1]; 500 μM, pooled cycles): 8%
G→A mutations of total mutations ([1]; 500 μM, pooled cycles): 9.2%
T→C mutations of total mutations ([1]; 500 μM, pooled cycles): 35.5%
codons mutated to alternative ones, out of 43 codons present ([1]; 12 mutant clones, equimolar with dNTPs): 40 codons
Number of point mutations, coding [1]: 318
Number of point mutations, silent [1]: 66
Number of point mutations, total [1]: 384
additional (unexpected) mutations found [1]: one T→G and two A→T transversions
linear relation of mutation frequency with number of PCR cycles, up to ([1]; 500 μM): 20 cycles
replacement of TTP in PCR ([3]; 350 base pair DNA, 30 cycles): could completely replace TTP and yield amounts of product comparable to those obtained using the four normal triphosphates
replacement of dCTP in PCR ([3]; 350 base pair DNA, 30 cycles): could replace dCTP to some extent
incorporation efficiency opposite template adenine versus guanine [7]: approximately three times more efficiently opposite template adenine than guanine residues
recognition by Taq polymerase compared with TTP [7]: virtually indistinguishable from TTP in terms of its recognition by Taq polymerase
Relative Efficiency ([7]; template A): 0.99
Vmax /Km ([7]; template A): 165000 M⁻¹
Vmax^(rel) ([7]; template A): 0.86 ± 0.06
Relative Efficiency ([7]; template G): 0.11
Vmax /Km ([7]; template G): 57000 M⁻¹
Vmax^(rel) ([7]; template G): 0.69 ± 0.08
